Source: US20070027118A1 (priority 2005, published 2007)
pKi: −log10 of the molar value.

Assays:
[1] = target: T1, 11β-hsd-1 enzyme (Homo sapiens, UniProt P28845); assay: biochemical
Method: The 11β-hsd-1 assay was performed in a 100 mM Triethanolamine buffer pH 8.0, containing 200 mM NaCl, 0.02% n-dodecyl β-D-maltoside, 5% glycerol, 5 mM β-mercaptoethanol. A typical reaction for the determination of Kiapp values was carried at R.T. in a Corning® u-bottom 96-well plate and is described as follows: 11β-hsd-1 enzyme (5 nM, final concentration) was pre-incubated in the presence of the inhibitor and NADPH (500 μM, final concentration) for at least 30 minutes in the assay buffer. When pre-incubation was completed, the reaction was initiated by adding the regenerating system (2 mM Glucose-6-Phosphate, 1U/mL Glucose-6-Phosphate dehydrogenase, and 6 mM MgCl2, all the concentration reported are final in the assay buffer), and 3H-cortisone (200 nM, final concentration). After 60 minutes, 60 μL of the assay mixture was transferred to a second 96-well plate and mixed with an equal volume of dimethylsulfoxide to stop the reaction. A 15 μL aliquot from the reaction mixture was loaded into a C-18 column (Polaris C18-A, 50×4.6 mm, 5 μ, 180 Angstrom from Varian) connected to an automated High-throughput Liquid Chromatography instrument developed by Cohesive Technologies Inc, of Franklin, Mass. USA, with a β-RAM model 3 Radio-HPLC detector from IN/US, of Tampa, Fla. USA. The substrate and product peaks were separated by using an isocratic mixture of 43:57 methanol to water (v/v) at a flow rate of 1.0 mL/min.
The initial reaction velocities were measured by stopping the reaction at 60 min and by measuring the area of product formation in the absence and the presence of various concentrations of inhibitors. The Kiapp values were determined using the equation for tight-binding inhibitor developed by Morrison, J. F. (Morrison J. F. Biochim BiophysActa. 1969; 185: 269-86).
The radiolabeled [1,2-3H]-cortisone is commercially available from American Radiolabeled Chemicals Inc of St. Louis, Mo. USA. NADPH, Glucose-6-Phosphate, and Glucose-6-Phosphate dehydrogenase were purchased from Sigma®.
(Morrison J. F. Biochim Biophys Acta. 1969; 185: 269-86).

[2] = target: T1, 11β-hsd-1 enzyme; assay: biochemical; settings: read-out: % Inh @ 0.1 mM; for inhibition at 100 µM: Table 2, inhibitor 0.1 mM as printed
In short: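 Human 11β-HSD-1 (5 nM) pre-incubated ≥30 min with inhibitor and 500 μM NADPH in triethanolamine buffer pH 8.0 with NaCl, n-dodecyl β-D-maltoside and β-ME; reaction started with G6P/G6PDH/MgCl2 regenerating system and 200 nM 3H-cortisone, run 60 min, stopped with DMSO. 3H-cortisol and substrate separated by radio-HPLC; percent inhibition from peak areas.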

T1 sequence (P28845 whole entry, species assumed): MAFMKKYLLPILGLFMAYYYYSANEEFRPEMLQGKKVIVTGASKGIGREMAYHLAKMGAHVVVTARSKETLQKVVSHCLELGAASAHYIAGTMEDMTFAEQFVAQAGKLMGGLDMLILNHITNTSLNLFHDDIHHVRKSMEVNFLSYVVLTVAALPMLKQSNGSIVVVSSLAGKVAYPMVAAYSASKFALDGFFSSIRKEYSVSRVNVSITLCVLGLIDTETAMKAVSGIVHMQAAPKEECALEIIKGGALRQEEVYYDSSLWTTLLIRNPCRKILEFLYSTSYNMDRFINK

pKi [1] | inhibition [2] | inhibition at 100 µM [2] | SMILES
7.60 | 85.2% |  | Cc1ccc(C2(C)CN(S(=O)(=O)Nc3ccc4ccccc4n3)CCO2)cc1 (stereo not drawn) [Example 87, 2-methyl-2-(4-methylphenyl)-N-quinolin-2-ylmorpholine-4-sulfonamide]
7.28 | 77.1% |  | CCc1cccc(NS(=O)(=O)N2CCCC(OCc3ccccc3)C2)n1 (stereo not drawn) [Example 88, 3-(benzyloxy)-N-(6-ethylpyridin-2-yl)piperidine-1-sulfonamide]
9.00 | 100% |  | CCCC1CCN(S(=O)(=O)Nc2cccc(CC)n2)CC1 [Example 89, N-(6-ethylpyridin-2-yl)-4-propylpiperidine-1-sulfonamide]
7.74 | 90.9% |  | CCc1cccc(NS(=O)(=O)N2CCCC(c3ccccc3)CC2)n1 (stereo not drawn) [Example 90, N-(6-ethylpyridin-2-yl)-4-phenylazepane-1-sulfonamide]
7.35 | 75.9% |  | CCc1cccc(NS(=O)(=O)N2CCC(OCc3ccccc3)CC2)n1 [Example 91, 4-(benzyloxy)-N-(6-ethylpyridin-2-yl)piperidine-1-sulfonamide]
6.96 | 69.7% |  | CCc1cccc(NS(=O)(=O)N2CCCC(COC)CC2)n1 (stereo not drawn) [Example 93, N-(6-ethylpyridin-2-yl)-4-(methoxymethyl)azepane-1-sulfonamide]
7.09 | 86.2% |  | CCc1cccc(NS(=O)(=O)N2CCCC(COCC3CC3)CC2)n1 (stereo not drawn) [Example 95, 4-[(cyclopropylmethoxy)-methyl]-N-(6-ethylpyridin-2-yl)azepane-1-sulfonamide]
7.21 | 71.6% |  | CCc1cccc(NS(=O)(=O)N2CCCC(c3ccnc(N4CCCC4)n3)C2)n1 (stereo not drawn) [Example 96, N-(6-ethylpyridin-2-yl)-3-(2-pyrrolidin-1-ylpyrimidin-4-yl)piperidine-1-sulfanamide]
8.20 | 100% |  | O=S(=O)(Nc1ccc2ccccc2n1)N1CCCC(c2ccccc2)CC1 (stereo not drawn) [Example 97, 4-phenyl-N-quinolin-2-ylazepane-1-sulfonamide]
7.55 | 92.4% |  | O=S(=O)(Nc1ccc2ccccc2n1)N1CCCC(COCC2CC2)CC1 (stereo not drawn) [Example 98, 4-[(cyclapropylmethoxy)meth-yl]-N-quinolin-2-ylazepane-1-sulfonamide]
7.20 | 77.6% |  | COCC1CCCN(S(=O)(=O)Nc2ccc3ccccc3n2)CC1 (stereo not drawn) [Example 99, 4-(methoxymethyl)-N-quinolin-2-ylazepane-1-sulfonamide]
7.23 | 90.6% |  | O=S(=O)(Nc1ccc2ccccc2n1)N1CCOC(COc2cc(F)cc(F)c2)C1 (stereo not drawn) [Example 100, 2-[(35-difluorophenoxy)meth-yl]-N-quinolin-2-ylmorpholine-4-sulfonamide]
7.47 | 78.3% |  | CCc1cccc(NS(=O)(=O)N2CCCC(F)(F)C2)n1 [Example 101, N-(6-ethylpyridin-2-yl)-33-difluoropiperidine-1-sulfonamide]
8.27 |  | 100% | CCc1cccc(NS(=O)(=O)N2CCC(Cc3cc(F)ccc3C)CC2)n1 [Example 102, N-(6-ethylpyridin-2-yl)-4-(5-fluoro-2-methylbenzyl)piperidine-1-sulfonamide]
7.62 | 82.2% |  | CCCC1CCCCN1S(=O)(=O)Nc1cccc(CC)n1 (stereo not drawn) [Example 103, N-(6-ethylpyridin-2-yl)-2-propylpiperidine-1-sulfonamide]
8.16 | 100% |  | CCc1cccc(NS(=O)(=O)N2CCC(CCc3ccccc3)CC2)n1 [Example 104, N-(6-ethylpyridin-2-yl)-4-(2-phenylethyl)piperidine-1-sulfonamide]
8.09 | 90.1% |  | CCc1cccc(NS(=O)(=O)N2CCCCC2c2ccc(F)cc2)n1 (stereo not drawn) [Example 105, N-(6-ethylpyridin-2-yl)-2-(4-fluorophenyl)piperidine-1-sulfonamide]
8.15 | 100% |  | CCc1cccc(NS(=O)(=O)N2CCC(C(F)(F)F)CC2)n1 [Example 106, N-(6-ethylpyridin-2-yl)-4-(trifluoromethyl)piperidine-1-sulfonamide]

pKi [1] | inhibition [2] | inhibition at 100 µM [2] | SMILES
7.22 | 89% |  | CCc1cccc(NS(=O)(=O)N2CCC(C3CCN(C(=O)c4ccc(F)cc4)CC3)CC2)n1 [Example 108, N-(6-ethylpyridin-2-yl)-1′-(4-fluorobenzoyl)-44′-bipiperidine-1-sulfonamide]
7.74 | 100% |  | CCc1cccc(NS(=O)(=O)N2CCC(Oc3ccc(Cl)cc3)CC2)n1 [Example 112, 4-(4-chlorophenoxy)-N-(6-ethylpyridin-2-yl)pipendine-1-sulfonamide]
7.80 | 89.2% |  | CCc1cccc(NS(=O)(=O)N2CCC(c3ccccc3F)CC2)n1 [Example 113, N-(6-ethylpyridin-2-yl)-4-(2-fluorophenyl)piperidine-1-sulfonamide]
7.82 | 97.4% |  | CCc1cccc(NS(=O)(=O)N2CCCC(COc3ccccc3F)C2)n1 (stereo not drawn) [Example 114, N-(6-ethylpyridin-2-yl)-3-[(2-fluorophenoxy)methyl]piperi-dine-1-sulfonamide]
7.74 | 100% |  | CCc1cccc(NS(=O)(=O)N2CCC(Cc3ccccc3)CC2)n1 [Example 116, 4-benzyl-N-(6-ethylpyridin-2-yl)piperidine-1-sulfonamide]
7.35 | 65.2% |  | CCc1cccc(NS(=O)(=O)N2CCC(C)CC2)n1 [Example 117, N-(6-ethylpyridin-2-yl)-4-methylpiperidine-1-sulfonamide]
7.23 | 73.6% |  | CCc1cccc(NS(=O)(=O)N2CCCC(C)C2)n1 (stereo not drawn) [Example 118, N-(6-ethylpyridin-2-yl)-3-methylpiperidine-1-sulfonamide]
7.43 | 93.1% |  | CCc1cccc(NS(=O)(=O)N2CCC(c3ccccc3OC)CC2)n1 [Example 119, N-(6-ethylpyridin-2-yl)-4-(2-methoxyphenyl)pipendine-1-sulfonamide]
8.46 | 100% |  | CCc1cccc(NS(=O)(=O)N2CCC(c3ccccc3)CC2)n1 [Example 121, N-(6-ethylpyridin-2-yl)-4-phenylpiperidine-1-sulfanamide]
7.96 | 91.7% |  | CCc1cccc(NS(=O)(=O)N2CCC(c3cccc(O)c3)CC2)n1 [Example 122, N-(6-ethylpyridin-2-yl)-4-(3-hydroxyphenyl)piperidine-1-sulfonamide]
7.66 | 100% |  | CCc1cccc(NS(=O)(=O)N2CCC(Oc3ccccc3)CC2)n1 [Example 123, N-(6-ethylpyridin-2-yl)-4-phenoxypiperidine-1-sulfanamide]
8.15 |  | 88.4% | CCc1cccc(NS(=O)(=O)N2CCC(Cc3ccc(F)cc3)CC2)n1 [Example 124, N-(6-ethylpyridin-2-yl)-4-(4-fluorobenzyl)pipendine-1-sulfonamide]
7.55 | 75.1% |  | Cc1cccc(NS(=O)(=O)N2CCN(c3ncccn3)CC2)n1 [Example 125, N-(6-methylpyridin-2-yl)-4-pyrimidin-2-ylpiperazine-1-sulfonamide]
7.60 | 91.8% |  | Cc1cccc(NS(=O)(=O)N2CCCCCCC2)n1 [Example 127, N-(6-methylpyridin-2-yl)azocane-1-sulfonamide]
7.89 | 100% |  | Cc1cccc(NS(=O)(=O)N2CCN(c3ncc(C(F)(F)F)cc3Cl)CC2)n1 [Example 128, 4-[3-chloro-5-(trifluoromethyl)pyridin-2-yl]-N-(6-methylpyridin-2-yl)piperazine-1-sulfonamide]
7.55 | 86.6% |  | CCOC(=O)N1CCN(S(=O)(=O)Nc2cccc(C)n2)CC1 [Example 129, ethyl 4-{[(6-methylpyridin-2-yl)amino]sulfonyl}piperazine-1-carboxylate]
7.54 | 93.2% |  | Cc1cccc(NS(=O)(=O)N2CCN(c3cccc(C)n3)CC2)n1 [Example 131, N4-bis(6-methylpyridin-2-yl)piperazine-1-sulfonamide]
7.34 | 74.8% |  | Cc1cccc(NS(=O)(=O)N2CCN(c3ncccc3C#N)CC2)n1 [Example 132, 4-(3-cyanopyridin-2-yl)-N-(6-methylpyridin-2-yl)piperazine-1-sulfonamide]
